Two molecules from ChEMBL document CHEMBL4334438, “Discovery of novel glycogen synthase kinase-3α inhibitors: Structure-based virtual screening, preliminary SAR and biological evaluation for treatment of acute myeloid leukemia” (Eur J Med Chem, 2019) can be followed below.

Series [1] has as its system RAC-gamma serine/threonine-protein kinase (Homo sapiens), Q9Y243 [S472D]. Description: Inhibition of recombinant human PKBgamma S472D mutant (117 to end residues) assessed as residual activity at 1 uM using GRPRTSSFAEGKK as substrate incubated for 40 mins in presence of [gamma33P]ATP by scintillation counting based radiometry assay relative to control.
The species entered for series [2] is Homo sapiens. Description: Inhibition of recombinant human MER H628Q/R794A mutant (557 to 882 residues) assessed as residual activity at 1 uM using GGMEDIYFEFMGGKKK as substrate incubated for 40 mins in presence of [gamma-33ATP by scintillation counting based radiometry assay relative to control.
Series [3] concerns Tyrosine-protein kinase ABL1 (Homo sapiens), P00519 [H396P]. Nature of the series: Inhibition of human ABL1 H396P mutant (27 to end residues) assessed as residual activity at 1 uM using EAIYAAPFAKKK as substrate incubated for 40 mins in presence of [gamma-33ATP] by scintillation counting based radiometry assay relative to control.
Series [4] has as its target Serine/threonine-protein kinase D3 (Homo sapiens) (UniProt O94806). Description: Inhibition of recombinant full-length human PKD3 assessed as residual activity at 1 uM using KKLRRTLSVA as substrate measured after 40 mins in presence of [gamma33P]ATP by scintillation counting method relative to control.
Series [5] has as its target Tyrosine-protein kinase receptor TYRO3 (Homo sapiens) (UniProt Q06418). Nature of the series: Inhibition of recombinant human RSE (451 to end residues) assessed as residual activity at 1 uM using KVEKIGEGTYGVVYK as substrate measured after 40 mins in presence of [gamma33P]ATP by scintillation counting method relative to control.
For series [6], the system named is Serine/threonine-protein kinase Sgk2 (Homo sapiens), Q9HBY8 [S416D]. Description: Inhibition of recombinant human SGK2 S416D mutant (54 to end residues) assessed as residual activity at 1 uM using GRPRTSSFAEGKK as substrate measured after 40 mins in presence of [gamma33P]ATP by scintillation counting method relative to control.
Chain of Serine/threonine-protein kinase Sgk2 (Homo sapiens), Q9HBY8 [S416D] (Q9HBY8 1-367 with tags or gaps S416D): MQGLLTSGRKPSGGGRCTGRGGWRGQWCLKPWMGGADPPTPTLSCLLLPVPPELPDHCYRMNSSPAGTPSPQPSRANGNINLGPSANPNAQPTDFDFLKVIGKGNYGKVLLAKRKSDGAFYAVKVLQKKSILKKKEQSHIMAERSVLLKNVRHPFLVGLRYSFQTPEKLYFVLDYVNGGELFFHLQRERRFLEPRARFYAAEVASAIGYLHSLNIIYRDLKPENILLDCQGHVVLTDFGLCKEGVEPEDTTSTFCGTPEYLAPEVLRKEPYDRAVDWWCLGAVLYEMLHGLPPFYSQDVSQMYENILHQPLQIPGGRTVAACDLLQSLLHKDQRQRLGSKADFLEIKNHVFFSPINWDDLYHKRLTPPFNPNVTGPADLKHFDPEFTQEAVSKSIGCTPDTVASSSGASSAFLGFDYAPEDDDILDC
The target of series [7] is CDK9/cyclin T1 (Homo sapiens) (UniProt O60563+P50750). Nature of the series: Inhibition of recombinant full length human CDK9/cyclinT1 assessed as residual activity at 1 uM using KTFCGTPEYLAPEVRREPRILSEEEQEMFRDFDYIADWC as substrate incubated for 40 mins in presence of [gamma-33ATP] by scintillation counting based radiometry assay relative to control. The class given is protein-complex assay.

Series [8] deals with Focal adhesion kinase 1 (Homo sapiens) (UniProt Q05397). Description: Inhibition of recombinant human FAK (411 to 686 residues) assessed as residual activity at 1 uM using EEEEYEEEEEEYYIIEEEEEEYEEEEEEYYEEEEEEKKKK as substrate at 40 mins in presence of [gamma-33ATP] by scintillation counting based radiometry assay relative to control.
Series [9] relates to Angiopoietin-1 receptor (Homo sapiens), Q02763 [Q939H,Q940H,Y897S]. Description: Inhibition of human Tie2 Q939H/Q940H/Y897S mutant (771 to end residues) assessed as residual activity at 1 uM using EFPIYDFLPAKKK as substrate measured after 40 mins in presence of [gamma33P]ATP by scintillation counting method relative to control.
Chain of Angiopoietin-1 receptor (Homo sapiens), Q02763 [Q939H,Q940H,Y897S] (Q02763 whole entry Y897S/Q939H/Q940H): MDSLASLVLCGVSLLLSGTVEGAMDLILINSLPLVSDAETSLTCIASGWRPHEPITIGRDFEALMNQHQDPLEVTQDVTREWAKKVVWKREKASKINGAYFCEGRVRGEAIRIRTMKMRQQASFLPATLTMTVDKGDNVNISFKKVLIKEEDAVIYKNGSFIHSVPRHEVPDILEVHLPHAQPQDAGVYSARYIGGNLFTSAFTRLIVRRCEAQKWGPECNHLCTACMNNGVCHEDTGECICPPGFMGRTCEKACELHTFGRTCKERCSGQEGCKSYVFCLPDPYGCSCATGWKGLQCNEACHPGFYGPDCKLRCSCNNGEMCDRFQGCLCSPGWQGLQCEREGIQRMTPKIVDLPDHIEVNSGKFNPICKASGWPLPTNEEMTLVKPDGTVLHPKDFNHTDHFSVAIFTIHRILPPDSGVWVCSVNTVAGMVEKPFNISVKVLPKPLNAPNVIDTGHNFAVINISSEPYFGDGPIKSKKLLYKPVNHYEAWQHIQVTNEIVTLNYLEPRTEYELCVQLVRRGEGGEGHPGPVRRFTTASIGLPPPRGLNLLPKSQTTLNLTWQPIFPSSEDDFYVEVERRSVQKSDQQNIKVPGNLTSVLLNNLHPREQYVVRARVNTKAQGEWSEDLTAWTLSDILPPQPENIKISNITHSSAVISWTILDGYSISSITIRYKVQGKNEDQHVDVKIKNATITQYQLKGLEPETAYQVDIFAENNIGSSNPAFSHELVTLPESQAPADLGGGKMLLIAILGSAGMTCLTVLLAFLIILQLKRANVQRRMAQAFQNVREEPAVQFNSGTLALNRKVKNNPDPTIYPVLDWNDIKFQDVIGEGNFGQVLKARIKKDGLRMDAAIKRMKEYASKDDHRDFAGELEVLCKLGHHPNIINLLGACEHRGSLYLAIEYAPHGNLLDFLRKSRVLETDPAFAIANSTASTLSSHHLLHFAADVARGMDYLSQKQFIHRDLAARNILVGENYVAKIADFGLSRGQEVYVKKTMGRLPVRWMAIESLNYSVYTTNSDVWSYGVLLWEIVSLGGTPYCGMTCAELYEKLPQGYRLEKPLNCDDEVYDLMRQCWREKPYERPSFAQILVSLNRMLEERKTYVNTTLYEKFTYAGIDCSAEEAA
Series [10] concerns Eukaryotic elongation factor 2 kinase (Homo sapiens), O00418 [H23R]. Nature of the series: Inhibition of recombinant human eEF-2K H23R mutant (2 to end residues) assessed as residual activity at 1 uM using RKKFGESEKTKTKEFL as substrate at 40 mins in presence of [gamma-33ATP] by scintillation counting based radiometry assay relative to control.
Chain of Eukaryotic elongation factor 2 kinase (Homo sapiens), O00418 [H23R] (O00418 whole entry H23R): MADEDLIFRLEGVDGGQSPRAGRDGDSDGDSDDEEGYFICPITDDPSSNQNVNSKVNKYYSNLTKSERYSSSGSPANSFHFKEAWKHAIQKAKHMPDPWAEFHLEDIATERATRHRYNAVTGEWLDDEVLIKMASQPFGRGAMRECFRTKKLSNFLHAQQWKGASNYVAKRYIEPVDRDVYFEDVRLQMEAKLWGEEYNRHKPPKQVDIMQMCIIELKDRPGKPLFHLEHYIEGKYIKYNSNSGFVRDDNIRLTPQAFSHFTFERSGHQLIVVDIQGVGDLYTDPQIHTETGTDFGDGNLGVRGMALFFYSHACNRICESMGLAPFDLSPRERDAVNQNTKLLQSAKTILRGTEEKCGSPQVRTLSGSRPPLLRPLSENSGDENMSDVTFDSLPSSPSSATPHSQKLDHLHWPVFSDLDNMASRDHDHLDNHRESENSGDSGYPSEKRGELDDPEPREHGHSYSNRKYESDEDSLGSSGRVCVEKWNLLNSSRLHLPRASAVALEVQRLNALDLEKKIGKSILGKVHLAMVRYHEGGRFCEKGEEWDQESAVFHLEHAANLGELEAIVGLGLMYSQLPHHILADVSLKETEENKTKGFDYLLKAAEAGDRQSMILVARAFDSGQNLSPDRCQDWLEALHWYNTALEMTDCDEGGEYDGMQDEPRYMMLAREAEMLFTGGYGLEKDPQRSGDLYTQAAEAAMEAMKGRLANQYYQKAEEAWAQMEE
Series [11] deals with Hepatocyte growth factor receptor (Homo sapiens), P08581 [M1250T]. Description: Inhibition of recombinant human MET A1209G/V1290L/M1268T mutant (974 to end residues) assessed as residual activity at 1 uM using KKKGQEEEYVFIE as substrate incubated for 40 mins in presence of [gamma-33ATP by scintillation counting based radiometry assay relative to control.
For series [12], the target named is Tyrosine-protein kinase BTK (Homo sapiens) (UniProt Q06187). Description: Inhibition of recombinant full length human BTK assessed as residual activity at 1 uM using KVEKIGEGTYGVV substrate incubated for 40 mins in presence of [gamma-33ATP] by scintillation counting based radiometry assay relative to control.
The target of series [13] is Insulin receptor (Homo sapiens) (UniProt P06213). Description: Inhibition of human activated IR (1005 to 1310 residues) assessed as residual activity at 1 uM using KKKSPGEYVNIEFG as substrate after 40 mins by [gamma-33ATP] radiometric assay relative to control.
Series [14] concerns the target Serine/threonine-protein kinase Nek9 (Homo sapiens) (UniProt Q8TD19). Description: Inhibition of recombinant human NEK9 (1 to 324 residues) assessed as residual activity at 1 uM using myelin basic protein as substrate measured after 40 mins in presence of [gamma33P]ATP by scintillation counting method relative to control.
The subject of series [15] is Tyrosine-protein kinase ABL1 (Homo sapiens), P00519 [M351T]. Description: Inhibition of human ABL1 M351T mutant (27 to end residues) assessed as residual activity at 1 uM using EAIYAAPFAKKK as substrate incubated for 40 mins in presence of [gamma-33ATP] by scintillation counting based radiometry assay relative to control.
The test system of series [16] is Calcium/calmodulin-dependent protein kinase kinase 2 (Homo sapiens), Q96RR4 [T85S]. Description: Inhibition of recombinant full length human CaMKK2 T85S mutant assessed as residual activity at 1 uM […] incubated for 40 mins in presence of [gamma-33ATP] by scintillation counting based radiometry assay relative to control.
The target of series [17] is GSK-3beta (H350L mutant) (Homo sapiens, UniProt P49841, H350L). Nature of the series: Inhibition of human GSK-3beta H350L mutant (2 to end residues) at 10 uM using phospho GS2 peptide as substrate after 40 mins by [gamma-33ATP] radiometric assay relative to control. Particulars: human GSK-3beta H350L mutant enzyme (residues 2 to end), probe phospho GS2 peptide.
The species entered for series [18] is Homo sapiens. Nature of the series: Inhibition of recombinant human Ros V2262A mutant (1883 to end residues) assessed as residual activity at 1 uM using KKKSPGEYVNIEFG as substrate measured after 40 mins in presence of [gamma33P]ATP by scintillation counting method relative to control.
In series [19] the test system is Proto-oncogene tyrosine-protein kinase Src (Homo sapiens), P12931 [T341M]. Nature of the series: Inhibition of recombinant full-length human Src T341M mutant at 1 uM assessed as residual activity at 1 uM using GGEEEEYFELVKKKK as substrate measured after 40 mins in presence of [gamma33P]ATP by scintillation counting method relative to control.
In series [20] the target is Serine/threonine-protein kinase 25 (Homo sapiens) (UniProt O00506). Nature of the series: Inhibition of human STK25 (1 to 308 residues) assessed as residual activity at 1 uM using RLGRDKYKTLRQIRQ as substrate measured after 40 mins in presence of [gamma33P]ATP by scintillation counting method relative to control.
Chain of Serine/threonine-protein kinase 25 (Homo sapiens) (O00506 whole entry, looked up, the tested form may be a part): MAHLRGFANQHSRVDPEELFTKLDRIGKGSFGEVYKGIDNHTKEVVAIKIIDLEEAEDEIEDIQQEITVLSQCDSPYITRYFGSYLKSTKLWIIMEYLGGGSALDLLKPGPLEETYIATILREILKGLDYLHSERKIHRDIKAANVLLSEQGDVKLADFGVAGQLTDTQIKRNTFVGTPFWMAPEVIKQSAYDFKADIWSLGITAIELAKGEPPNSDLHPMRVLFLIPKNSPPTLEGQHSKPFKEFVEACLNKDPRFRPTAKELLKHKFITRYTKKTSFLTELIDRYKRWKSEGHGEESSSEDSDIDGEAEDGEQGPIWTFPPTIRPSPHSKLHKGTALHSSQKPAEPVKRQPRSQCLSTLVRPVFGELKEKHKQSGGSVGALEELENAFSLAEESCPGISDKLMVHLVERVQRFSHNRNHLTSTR

Chain of RAC-gamma serine/threonine-protein kinase (Homo sapiens), Q9Y243 [S472D] (Q9Y243 whole entry S472D, the tested form may be a part): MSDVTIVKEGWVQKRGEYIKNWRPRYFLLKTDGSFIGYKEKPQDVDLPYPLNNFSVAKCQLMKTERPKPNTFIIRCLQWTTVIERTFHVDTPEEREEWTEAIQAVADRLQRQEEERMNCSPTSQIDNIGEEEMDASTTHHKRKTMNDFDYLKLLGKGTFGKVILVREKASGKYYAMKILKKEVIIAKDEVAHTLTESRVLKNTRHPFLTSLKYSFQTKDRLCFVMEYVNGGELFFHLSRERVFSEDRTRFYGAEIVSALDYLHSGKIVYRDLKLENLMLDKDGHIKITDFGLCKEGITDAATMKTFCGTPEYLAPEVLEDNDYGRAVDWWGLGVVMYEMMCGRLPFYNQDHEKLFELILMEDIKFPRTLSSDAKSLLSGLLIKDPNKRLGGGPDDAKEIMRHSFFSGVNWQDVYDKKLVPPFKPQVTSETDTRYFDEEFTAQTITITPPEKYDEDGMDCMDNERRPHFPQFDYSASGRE
Chain of Serine/threonine-protein kinase Nek9 (Homo sapiens) (Q8TD19 whole entry, the tested form may be a part): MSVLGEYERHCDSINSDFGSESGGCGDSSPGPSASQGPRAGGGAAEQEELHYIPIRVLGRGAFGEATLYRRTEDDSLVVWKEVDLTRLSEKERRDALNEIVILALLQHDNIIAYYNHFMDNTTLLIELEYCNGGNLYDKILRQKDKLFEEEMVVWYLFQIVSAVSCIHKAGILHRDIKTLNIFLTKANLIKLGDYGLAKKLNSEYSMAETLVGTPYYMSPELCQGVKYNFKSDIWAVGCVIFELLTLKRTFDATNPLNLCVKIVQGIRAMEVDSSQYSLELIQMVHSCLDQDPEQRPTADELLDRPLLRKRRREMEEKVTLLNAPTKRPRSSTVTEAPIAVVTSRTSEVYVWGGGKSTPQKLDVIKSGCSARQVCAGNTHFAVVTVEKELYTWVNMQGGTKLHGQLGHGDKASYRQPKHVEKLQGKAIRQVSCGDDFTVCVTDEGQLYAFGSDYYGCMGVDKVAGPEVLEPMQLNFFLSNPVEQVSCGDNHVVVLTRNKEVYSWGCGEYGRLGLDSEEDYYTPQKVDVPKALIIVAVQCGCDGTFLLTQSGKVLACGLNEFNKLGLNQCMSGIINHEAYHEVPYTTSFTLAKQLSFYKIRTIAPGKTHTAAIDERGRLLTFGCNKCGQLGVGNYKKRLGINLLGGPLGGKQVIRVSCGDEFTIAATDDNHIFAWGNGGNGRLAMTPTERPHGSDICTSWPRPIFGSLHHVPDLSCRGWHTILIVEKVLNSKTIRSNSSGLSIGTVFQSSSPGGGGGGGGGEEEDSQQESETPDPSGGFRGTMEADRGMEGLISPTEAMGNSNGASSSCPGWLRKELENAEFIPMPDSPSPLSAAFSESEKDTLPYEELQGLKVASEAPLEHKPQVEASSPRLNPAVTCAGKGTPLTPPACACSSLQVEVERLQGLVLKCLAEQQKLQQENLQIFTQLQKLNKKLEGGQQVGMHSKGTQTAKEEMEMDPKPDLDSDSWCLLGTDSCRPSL
Chain of Tyrosine-protein kinase receptor TYRO3 (Homo sapiens) (Q06418 whole entry): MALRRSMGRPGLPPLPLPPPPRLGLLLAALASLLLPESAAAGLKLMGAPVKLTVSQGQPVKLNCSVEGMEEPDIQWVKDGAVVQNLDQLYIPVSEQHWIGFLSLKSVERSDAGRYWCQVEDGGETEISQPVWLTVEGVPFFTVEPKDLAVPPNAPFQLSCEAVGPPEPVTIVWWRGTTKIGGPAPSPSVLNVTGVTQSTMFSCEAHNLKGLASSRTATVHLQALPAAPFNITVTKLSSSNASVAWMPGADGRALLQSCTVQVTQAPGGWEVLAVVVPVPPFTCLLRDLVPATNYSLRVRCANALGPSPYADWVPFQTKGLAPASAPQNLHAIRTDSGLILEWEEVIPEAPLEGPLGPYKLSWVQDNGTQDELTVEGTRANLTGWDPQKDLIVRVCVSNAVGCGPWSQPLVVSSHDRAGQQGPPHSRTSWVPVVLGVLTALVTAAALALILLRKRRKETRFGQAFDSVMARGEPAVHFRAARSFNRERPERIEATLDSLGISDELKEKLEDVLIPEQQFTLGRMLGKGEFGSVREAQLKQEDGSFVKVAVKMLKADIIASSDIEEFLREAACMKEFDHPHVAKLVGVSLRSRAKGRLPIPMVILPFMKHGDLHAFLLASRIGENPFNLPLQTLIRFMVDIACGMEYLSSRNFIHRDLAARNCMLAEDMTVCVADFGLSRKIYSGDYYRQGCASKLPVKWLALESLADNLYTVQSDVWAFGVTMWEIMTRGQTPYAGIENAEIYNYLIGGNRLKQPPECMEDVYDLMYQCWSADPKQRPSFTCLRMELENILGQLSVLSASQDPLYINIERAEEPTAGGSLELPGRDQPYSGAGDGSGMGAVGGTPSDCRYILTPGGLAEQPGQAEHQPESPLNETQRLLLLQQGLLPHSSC

As for `N=C1NC(=O)/C(=C\c2ccc(-c3cccc([N+](=O)[O-])c3)o2)S1`, the Activity was found to be 100% in [1]; 97% in series [2]; 80% in series [3]; 89% in [4]; 110% in [5]; 101% in series [6]. Besides, the Activity in [7] is 74%; in [8], 105%; in [9], 103%; in [10], 95%; in series [11], 82%; in series [12], 93%. For the same molecule, the Activity in [13] was found to be 103%; in [14], 103%; in series [15], 97%; in [16], 92%; in series [18], 95%; in [19] it was 97%. For the same molecule, the Activity in series [20] turned out to be 97%. The molecule also returned an inhibition at 40 min, 10 µM in series [17] of 95%.

In the case of `C=CCOC(=O)c1cc(-c2ccc(/C=C3/NC(=S)NC3=O)o2)ccc1Cl`, the Activity in series [1] was 72%; in [2], 101%; in series [3], 110%; in series [4], 94%; in [5], 100%; in series [6], 108%. Further, the Activity in [7] came to 86%; in series [8], 105%; in series [9] it was 98%; in [10], 98%; in [11], 101%; in series [12], 101%. For the same molecule, the Activity in series [13] turned out to be 106%; in [14] it was 101%; in series [15] it was 103%; in series [16] it was 94%; in series [18], 118%; in series [19], 92%. In series [20], the Activity was found to be 90%. This molecule also showed an inhibition at 40 min, 10 µM in series [17] of 92%.

By inhibition is commonly meant the relative decrease from the control value, in per cent. Low readings indicate a response near the control, high ones a response far below the control.
